Like-named read-outs stand apart in the source and are kept apart here.

These results are taken from patent publication US10722480B2, “Agent for controlling cells constituting cancer microenvironment or inflammatory microenvironment” (The University of Tokyo, priority 2015, dated 2020).

For one data set, the target named is T1, FROUNT-CCR2 interaction (Homo sapiens, UniProt Q9BW27).
T1 construct: made in house
T1 sequence (Q9BW27 500-656): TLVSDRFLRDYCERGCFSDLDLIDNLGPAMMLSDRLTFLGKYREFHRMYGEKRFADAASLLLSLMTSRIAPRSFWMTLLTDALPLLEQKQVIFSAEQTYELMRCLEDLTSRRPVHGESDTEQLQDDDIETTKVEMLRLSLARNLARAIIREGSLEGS
Briefly: HTRF binding inhibition assay, FROUNT-CCR2 interaction. On the procedure:
For the screening, a compound library containing 131,200 kinds of compounds dissolved in DMSO at a concentration of 10 mM or 2 mM (obtained from Open Innovation Center for Drug Discovery, the University of Tokyo) was used. The HTRF assay was carried out using a 384-well low-dose white microplate (Corning Coaster; catalog number 3676). In each well, 4 μL of a solution of 20 nM GST fusion FROUNT protein (a recombinant polypeptide prepared by fusing GST to aa 500-656 of SEQ ID NO:2), and DMSO or test compounds were mixed with a binding buffer (10 mM HEPES [pH 7.4], 0.2 M potassium fluoride, 10 mM NaCl, 0.1% Tween 20, and 0.5% bovine serum albumin [BSA]), and the plate was incubated at room temperature for 30 minutes. […]. After incubation at room temperature for 20 hours, the HTRF signal was measured at emission wavelengths of 620 nm and 665 nm using a multilabel counter EnVision (PerkinElmer).
(§1) By the same HTRF assay as described above, the abilities of disulfiram to inhibit the FROUNT-CCR2 interaction or the FROUNT-CCR5 interaction were investigated. As the CCR5 pro-C peptide, the 16 residues […] (SEQ ID NO:4) in the C-terminal region of CCR5 was used. As a control, the p53-MDM2 interaction (which is inhibited by an MDM-2-specific inhibitor Nutlin), which is also a helix peptide-protein interaction like the interaction between FROUNT and CCR2 or CCR5 but is not related thereto, was used.
(TR-FRET usually uses a lanthanide donor and a delayed reading to cut background.)

The target in a further data set is p53-MDM2 interaction (Homo sapiens, UniProt Q00987). The data set can be described thus: HTRF binding inhibition assay, p53-MDM2 control interaction. The conditions noted are these: p53-MDM2 control interaction.
From the text: as §1

In data set [1] the target is T2, aldehyde dehydrogenase (ALDH) (Rattus norvegicus, UniProt P11884).
T2 sequence (P11884 20-519): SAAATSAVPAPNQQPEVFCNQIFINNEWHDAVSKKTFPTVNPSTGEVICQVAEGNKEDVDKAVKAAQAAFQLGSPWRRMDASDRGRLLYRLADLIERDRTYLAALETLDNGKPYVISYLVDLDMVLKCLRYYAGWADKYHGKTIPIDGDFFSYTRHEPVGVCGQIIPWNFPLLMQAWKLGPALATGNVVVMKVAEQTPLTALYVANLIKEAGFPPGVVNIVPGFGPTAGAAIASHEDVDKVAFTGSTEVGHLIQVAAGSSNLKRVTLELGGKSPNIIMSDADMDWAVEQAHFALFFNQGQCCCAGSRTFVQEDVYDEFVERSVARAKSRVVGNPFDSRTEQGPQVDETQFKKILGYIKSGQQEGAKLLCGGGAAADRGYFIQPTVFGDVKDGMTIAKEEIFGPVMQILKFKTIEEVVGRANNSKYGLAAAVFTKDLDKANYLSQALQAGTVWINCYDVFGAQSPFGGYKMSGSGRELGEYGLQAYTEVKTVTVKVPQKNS
Particulars: Excerpt from Alcohol Clin Exp Res 1996.20.595-; read-out: ALDH inhibition; cited from earlier work.

The subject of the next data set is LLC tumor cells. The data set can be described thus: LDH cytotoxicity assay, LLC tumor cells. Type of data set: cell-based. On the procedure: (§2) The cytotoxicity of inhibitors was tested by using LDH Cytotoxicity Detection Kit (TaKaRa) according to the manufacturer's instructions. Briefly, tumor cells were cultured in the presence or absence of an agent (disulfiram or 5FU) for 72 hours, and the culture supernatant was then collected and tested for the concentration of lactate dehydrogenase released from damaged cells. For measurement of cell proliferation, cells were incubated in a plate well together with an inhibitor for 48 hours. During the last 30 minutes, WST-1 (Dojindo Laboratories) was added to the culture liquid, and the absorbance of each well was measured at 450 nm versus 650 nm reference using EnVision (PerkinElmer) to detect the formazan level.

Data set [2] has as its system B16F10 melanoma cells. Briefly: Lung metastasis model (B16F10). Type of data set: in vivo, mouse. The conditions noted are these: B16F10 via tail vein, Day 9 post tumor administration. On the procedure:
To provide a lung metastasis model, 1×10^6 B16F10 melanoma cells were suspended in 200 μL of PBS, and administered from the tail vein of each of wild-type C57BL/6 mice. Administration of the inhibitor was carried out one day before, 30 minutes before, and one day after the tumor administration. To provide a control, DMSO and a pyrimidine fluoride anticancer drug 5-FU were administered. The mice were euthanized on Day 9 post tumor administration, and PBS was perfused from the left ventricle, followed by isolation of lungs. Visible lung metastatic lesions in the left lobe were counted.

The test system of data set [3] is B16F10 melanoma cells. The data set can be described thus: LDH cytotoxicity assay, B16F10 melanoma cells. Type of data set: cell-based. The procedure:
as §2

In data set [4] the test system is B16F10 melanoma cells. Briefly: WST-1 proliferation assay, B16F10 melanoma cells. Type of data set: cell-based. Particulars: WST-1, 48 hours. The procedure: as §2
Where [5] appears, read: HTRF, read-out: FROUNT inhibition (IC50 against FROUNT-CCR2).

Chain of p53-MDM2 interaction (Q00987 whole entry): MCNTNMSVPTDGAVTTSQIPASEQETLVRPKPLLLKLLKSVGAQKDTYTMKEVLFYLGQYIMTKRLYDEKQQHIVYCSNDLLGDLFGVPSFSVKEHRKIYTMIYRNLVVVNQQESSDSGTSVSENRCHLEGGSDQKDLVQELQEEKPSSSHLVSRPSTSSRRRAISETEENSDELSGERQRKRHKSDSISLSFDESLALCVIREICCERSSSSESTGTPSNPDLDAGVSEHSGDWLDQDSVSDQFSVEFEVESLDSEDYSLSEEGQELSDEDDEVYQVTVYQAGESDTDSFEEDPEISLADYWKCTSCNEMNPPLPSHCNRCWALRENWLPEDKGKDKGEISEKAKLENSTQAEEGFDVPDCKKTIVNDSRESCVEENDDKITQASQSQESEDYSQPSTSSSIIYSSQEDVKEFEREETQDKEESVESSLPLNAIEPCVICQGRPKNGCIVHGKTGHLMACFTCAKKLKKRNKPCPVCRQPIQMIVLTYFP

For the molecule `CCN(CC)C(=S)[S-].CCN(CC)C(=S)[S-].CCN(CC)C(=S)[S-].[Fe+3]` [iron (III) complex of DDC], the IC50 on FROUNT-CCR2 interaction (setting [5]) amounted to 9.2 nM.
`CCN(CC)C(=S)S` [DDC, sodium diethyldithiocarbamate] registered an IC50 on FROUNT-CCR2 interaction of 137 nM.
For `CCN(CC)C(=O)S(C)(=O)=O` [Me-DTC sulfone], the IC50 is greater than 1000 nM at p53-MDM2 interaction, greater than 1000 nM on FROUNT-CCR2 interaction (setting [5]) and 530 nM in data set [1].
With `O=c1[nH]cc(F)c(=O)[nH]1` [5FU], in the data set with LLC tumor cells, the “cytotoxic activity on LLC tumor cells” value is “completely killed”. Moreover, in the data set on B16F10 melanoma cells [2], the “formation of lung metastatic lesions” value is reported as “did not reduce”. Further, in the data set with B16F10 melanoma cells [3], the “cytotoxic activity on B16F10 melanoma cells” value was “showed cytotoxic activity”. Besides, in the data set on B16F10 melanoma cells [4], the “growth-inhibiting action on B16F10 melanoma cells” value is “growth-inhibiting action”.
With `CCN(CC)C(=O)[S+](C)[O-]` (stereo not drawn) [Me-DTC sulfoxide], the IC50 was greater than 1000 nM on p53-MDM2 interaction, greater than 1000 nM at FROUNT-CCR2 interaction (setting [5]) and 930 nM in data set [1].
